Measurements as given in patent publication US9376675B2, “Method for preserving components of pancreatic juice in a sample, and kit for preserving components of pancreatic juice in a sample” (priority 2012, dated 2016).

Key:
[1] = tested on: Pancreatin (activated pancreatic enzyme); assay: Protease activity of pancreatin solution (pseudo artificial pancreatic juice), EnzCheck Protease Assay Kit with fluorescently-labeled casein; type: biochemical, pig; settings: final concentration within range recommended by manufacturers; 37° C. for 2 hours; Ex/Em=485/535 nm
Procedure: A protease inhibitor screen was performed to find an inhibitor targeting a serine protease and having a high inhibitory effect against pancreatic juice. The protease inhibitors used were aprotinin (product of Roche), leupeptin (product of Roche), PMSF (product of Roche), AEBSF (product of Roche), p-APMSF (product of SIGMA), camostat mesilate (Foipan: product of Wako Pure Chemical Industries), gabexate mesilate (FOY: product of Wako Pure Chemical Industries), TLCK (product of SIGMA), and TPCK (product of SIGMA). It is to be noted that TPCK is an amino acid chloromethyl ketone having inhibitory activity against chymotrypsin but having no inhibitory activity against trypsin.
“Pancreatin”, a digestive enzyme prepared from the pig pancreas in which a pancreatic enzyme was present in activated form was used as pseudo artificial pancreatic juice. After addition of protease inhibitors in an amount so that the final concentration thereof would fall within a concentration range recommended by the manufacturers of the inhibitors, the protease activity was measured. The protease activity was measured using EnzCheck Protease Assay Kits (product of Molecular Probes). Described specifically, fluorescently-labeled casein attached to a kit was added to a pancreatin solution containing each protease inhibitor. After incubation at 37° C. for 2 hours, the amount of fluorescence was measured at a fluorescence wavelength of Ex/Em=485/535 nm. As a control, the protease activity of a sample solution (containing no inhibitor) obtained by directly adding fluorescently-labeled casein to pancreatin was measured.
The amount of fluorescence plotted along the ordinate represents the amount of degraded casein and it was approximated as the value of protease activity. The protease inhibitors contained respectively in the pancreatin solutions and final concentrations thereof are plotted along the abscissa. […] These inhibitors are each a sulfonyl fluoride-containing sulfone-based compound.

[2] = tested on: S100P in human pancreatic juice specimens; assay: Room temperature storage stability of S100P in human clinical pancreatic juice specimens versus freeze storage, S100P ELISA (Example 3); settings: seven human clinical specimens; 25° C. for 16 hours; AEBSF 4 mM, PMSF 1 mM
Procedure: With a view to improving the storage performance of pancreatic proteins further, it was studied whether the storage stability of S100P was influenced by the combined use of the sulfonyl fluoride-containing sulfone-based compound and TLCK, that is, another […] compound. Seven human clinical specimens were used.
Described specifically, sample solutions were prepared as follows: (1) Sample Solution 1: AEBSF, obtained by adding AEBSF (final concentration: 4 mM) to the human clinical specimens. (2) Sample Solution 2: AEBSF+PMSF, obtained by adding AEBSF (final concentration: 4 mM) and PMSF (final concentration: 1 mM) to the human clinical specimens. (3) Sample Solution 3: AEBSF+PMSF+Aprotinin, obtained by adding AEBSF (final concentration: 4 mM), PMSF (final concentration: 1 mM) and Aprotinin (final concentration: 3 μM) to the human clinical specimens. […]
The concentration of S100P is plotted along the ordinate, while Sample Solutions 1 to 5 (“AEBSF”, “AEBSF+PMSF”, “AEBSF+PMSF+Aprotinin”, “AEBSF+PMSF+TPCK”, and “AEBSF+PMSF+TLCK” in the graph) of the human pancreatic juice specimens 1 to 7 are plotted along the abscissa. […] As a result, in the sample solutions after frozen storage, S100P was detected, though varying in amount, from all the human pancreatic juice specimens irrespective of the kind of the protease inhibitor added. […]

[3] = tested on: S100P in human clinical pancreatic juice specimens; assay: Room temperature storage stability of added S100P standard preparation in human clinical pancreatic juice specimens, S100P ELISA (Example 2); settings: 25 ng/mL S100P standard added; four human clinical pancreatic juice specimens; 25° C. for 16 hours; AEBSF 4 mM, PMSF 1 mM
Source text: While attention was paid to the sulfone-based compounds found to have a high inhibitory effect against digestive enzymes in pancreatic juice in Example 1, the effect of the various sulfone-based compounds on the room temperature stability of S100P (calcium-binding protein) known as a marker protein of pancreatic cancer was studied. This means that by using four human clinical pancreatic juice specimens, whether the concentration of S100P changed or not after addition of a S100P protein standard preparation was studied before and after room temperature storage.
Described specifically, sample solutions were prepared as follows: (1) Sample Solution 1: containing no inhibitor, obtained by mixing 25 ng/mL of an S100P (standard preparation) solution with the human clinical specimens, respectively. (2) Sample Solution 2: AEBSF, obtained by adding AEBSF (final concentration: 4 mM) to Sample Solution 1. […] Then, S100P was detected using CircuLex S100P ELISA Kit (product of Cyclex, Catalogue Number: CY-8060) from solutions obtained by carrying out 10-fold dilution of the sample solutions with a buffer attached to CircuLex S100P ELISA Kit, respectively. As a control, S100P was detected similarly from Sample Solution 1 immediately after preservation (that is, before room temperature storage). […]

[4] = tested on: S100P in human pancreatic juice specimens 1 and 2; assay: Room temperature storage stability of added S100P standard preparation in human pancreatic juice specimens 1 and 2, S100P ELISA (Example 4); settings: 25 ng/mL S100P standard added (exogenous), 25° C. for 16 hours, AEBSF 4 mM, PMSF 1 mM, TLCK 1 mM
Procedure: An effect of a protease inhibitor for storage stability of S100P in a pseudo artificial pancreatic juice and that for storage stability of S100P in a human clinical specimen were compared. As a S100P-containing pseudo artificial pancreatic juice, a solution obtained by adding S100P (standard preparation) to a pancreatin solution to give a concentration of 25 ng/mL was used.
More specifically, sample solutions were prepared as follows: (1) Sample Solution 1: containing no inhibitor, obtained by mixing 25 ng/mL of an S100P (standard preparation) solution with the two human clinical specimens (human pancreatic juice specimens 1 and 2) used in Example 3 and the pseudo artificial pancreatic juice. […]
The concentration of S100P is plotted along the ordinate, while Sample Solutions 1 to 4 using the human pancreatic juice specimens 1 and 2 and the S100P-containing pseudo artificial pancreatic juice (“Without inhibitor”, “AEBSF”, “AEBSF+PMSF”, and “AEBSF+PMSF+TLCK” in the graph) are plotted along the abscissa. […] As a result, in the sample solutions after freeze storage, S100P was detected from both the human pancreatic juice specimen and the pancreatin solution. On the other hand, with regard to the sample solutions after room temperature storage, no S100P was detected from the pancreatin solutions irrespective of the presence or absence or the kind of the protease inhibitor.

Row | SMILES | inhibitory effect on protease activity (amount of fluorescence = degraded casein) of pancreatin solution [1] | S100P detection amount after room temperature storage compared with freeze storage [2] | S100P concentration after room temperature storage [3] | detection amount of S100P after room temperature storage [4]
1 | NCCc1ccc(S(=O)(=O)F)cc1 [AEBSF, 4-(2-aminoethyl)-benzenesulfonyl fluoride] | markedly high inhibitory effect | the detection amount was very small compared with that after freeze storage | S100P was detected from any of the pancreatic juice specimens | detection amount of S100P is greater
2 | O=S(=O)(F)Cc1ccccc1 [PMSF, phenylmethylsulfonyl fluoride] | markedly high inhibitory effect |  |  | 
3 | Cc1ccc(S(=O)(=O)N[C@@H](CCCCN)C(=O)CCl)cc1 [TLCK, N-a-tosyl-L-lysine chloromethyl ketone] | not effective inhibitors by themselves |  |  | 
4 | Cl.N=C(N)c1ccc(CS(=O)(=O)F)cc1 [p-APMSF, p-amidinophenylmethanesulfonyl fluoride hydrochloride] | markedly high inhibitory effect |  |  | 
